Target: T1, hMC2 receptor (crude hMC2R membranes from CRE-bla-CHO-K1 cells stably expressing hMC2 receptor and hMRAP accessory protein) (Homo sapiens, UniProt Q01718)
T1 construct: crude membrane fractions
Assay: hMC2 membrane binding assay ([125I]ACTH (1-39) Tyr23, SPA)
Conditions: displacement of 0.2 nM [125I]ACTH (1-39) Tyr23 from hMC2R membranes, 1.5 hours at room temperature; read-out: MC2R binding potency
Outline: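 Crude membranes from CRE-bla-CHO-K1 cells stably co-expressing hMC2R and hMRAP, premixed with WGA PVT SPA beads in pH 7.4 HEPES buffer (5 mM MgCl2, 1 mM CaCl2, 0.20% BSA, protease inhibitors). Compounds compete with [125I]ACTH(1-39) Tyr23, read by scintillation. Ki from non-linear regression.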

T1 sequence (Q01718 whole entry): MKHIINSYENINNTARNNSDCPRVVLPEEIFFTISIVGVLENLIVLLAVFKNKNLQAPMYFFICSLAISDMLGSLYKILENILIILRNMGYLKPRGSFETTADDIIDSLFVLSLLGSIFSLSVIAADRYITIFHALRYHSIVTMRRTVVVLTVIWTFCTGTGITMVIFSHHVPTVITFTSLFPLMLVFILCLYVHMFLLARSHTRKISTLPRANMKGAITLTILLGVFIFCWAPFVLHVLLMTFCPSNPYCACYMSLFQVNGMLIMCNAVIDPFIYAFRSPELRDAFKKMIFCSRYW
T1 sequence (Q8TCY5 whole entry partner): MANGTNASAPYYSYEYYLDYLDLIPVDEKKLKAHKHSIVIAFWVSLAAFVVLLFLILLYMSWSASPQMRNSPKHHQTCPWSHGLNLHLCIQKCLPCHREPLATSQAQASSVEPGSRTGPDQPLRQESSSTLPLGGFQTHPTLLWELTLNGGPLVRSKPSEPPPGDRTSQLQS

Row | SMILES | Ki [nM]
1 | COc1ccc(C)cc1-c1ccc(C2(C(=O)N[C@@H]3CCN(C)C3)CCN(c3ccc(C(F)(F)F)cc3C#N)CC2)cn1 [Compound 1-130, 1-[2-cyano-4-(trifluoromethyl)phenyl]-4-[6-(2-methoxy-5-methylphenyl)pyridin-3-yl]-N-[(3R)-1-methylpyrrolidin-3-yl]piperidine-4-carboxamide] | < 10
2 | COc1ncccc1-c1ncc(C2(C(=O)N[C@@H]3CCN(C)C3)CCN(c3ccc(C(F)(F)F)cc3C#N)CC2)cc1F [Compound 1-131, 1-[2-cyano-4-(trifluoromethyl)phenyl]-4-{3-fluoro-2′-methoxy-[2,3′-bipyridin]-5-yl}-N-[(3R)-1-methylpyrrolidin-3-yl]piperidine-4-carboxamide] | < 10
3 | CN1CC[C@H](NC(=O)C2(c3ccc(-c4cccn4C)nn3)CCN(c3ccc(Cl)cc3C#N)CC2)C1 [Compound 1-170, 1-(4-chloro-2-cyanophenyl)-4-[6-(1-methyl-1H-pyrrol-2-yl)pyridazin-3-yl]-N-[(3S)-1-methylpyrrolidin-3-yl]piperidine-4-carboxamide] | < 10
4 | CCOc1ccccc1-c1ccc(C2(NC(=O)C3CN(C)C3)CCN(c3ccc(C(F)(F)F)cc3C#N)CC2)cn1 [Compound 2-35, N-{1-[2-cyano-4-(trifluoromethyl)phenyl]-4-[6-(2-ethoxyphenyl)pyridin-3-yl]piperidin-4-yl}-1-methylazetidine-3-carboxamide] | < 10
5 | Cc1ccc(F)cc1-c1ccc(C2(C(=O)N[C@@H]3CCN(C)C3)CCN(c3ccc(C(F)(F)F)cc3C#N)CC2)cn1 [Compound 1-99, 1-[2-cyano-4-(trifluoromethyl)phenyl]-4-[6-(5-fluoro-2-methylphenyl)pyridin-3-yl]-N-[(3R)-1-methylpyrrolidin-3-yl]piperidine-4-carboxamide] | < 10
6 | CCCOc1ccccc1-c1ccc(C2(C(=O)N[C@@H]3CCN(C)C3)CCN(c3ccc(C(F)(F)F)cc3C#N)CC2)cn1 [Compound 1-63, 1-[2-cyano-4-(trifluoromethyl)phenyl]-N-[(3R)-1-methylpyrrolidin-3-yl]-4-[6-(2-propoxyphenyl)pyridin-3-yl]piperidine-4-carboxamide] | < 10
7 | Cc1cscc1-c1ccc(C2(C(=O)N[C@@H]3CCN(C)C3)CCN(c3ccc(C(F)(F)F)cc3C#N)CC2)cn1 [Compound 1-138, 1-[2-cyano-4-(trifluoromethyl)phenyl]-N-[(3R)-1-methylpyrrolidin-3-yl]-4-[6-(4-methylthiophen-3-yl)pyridin-3-yl]piperidine-4-carboxamide] | < 10
8 | CNCCNC(=O)C1(c2cnc(-c3cccn3C)c(F)c2)CCN(c2ccc(C(F)(F)F)cc2F)CC1 [Compound 1-305, 1-[2-fluoro-4-(trifluoromethyl)phenyl]-4-[5-fluoro-6-(1-methyl-1H-pyrrol-2-yl)pyridin-3-yl]-N-[2-(methylamino)ethyl]piperidine-4-carboxamide] | < 10
9 | COc1ccccc1-c1ccc(C2(C(=O)NC[C@H]3CN(C)CCO3)CCN(c3ccc(C(F)(F)F)cc3C#N)CC2)cn1 [Compound 1-327, 1-[2-cyano-4-(trifluoromethyl)phenyl]-4-[6-(2-methoxyphenyl)pyridin-3-yl]-N-{[(2S)-4-methylmorpholin-2-yl]methyl}piperidine-4-carboxamide] | 10 to 100
10 | Cn1cccc1-c1ccc(C2(C(=O)N[C@H]3CCNC3)CCN(c3ccc(C(F)(F)F)cc3C#N)CC2)cn1 [Compound 1-152, 1-[2-cyano-4-(trifluoromethyl)phenyl]-4-[6-(1-methyl-1H-pyrrol-2-yl)pyridin-3-yl]-N-[(3S)-pyrrolidin-3-yl]piperidine-4-carboxamide] | < 10
11 | CCOc1ncccc1-c1ncc(C2(C(=O)N[C@H]3CCN(C)C3)CCN(c3ccc(C(F)(F)F)cc3C#N)CC2)cc1F [Compound 1-109, 1-[2-cyano-4-(trifluoromethyl)phenyl]-4-{2′-ethoxy-3-fluoro-[2,3′-bipyridin]-5-yl}-N-[(3S)-1-methylpyrrolidin-3-yl]piperidine-4-carboxamide] | < 10
12 | CN1CC(F)(F)C[C@@H]1CNC(=O)C1(c2ccc(-c3cccn3C)nc2)CCN(c2ccc(C(F)(F)F)cc2C#N)CC1 [Compound 1-280, 1-[2-cyano-4-(trifluoromethyl)phenyl]-N-{[(2R)-4,4-difluoro-1-methylpyrrolidin-2-yl]methyl}-4-[6-(1-methyl-1H-pyrrol-2-yl)pyridin-3-yl]piperidine-4-carboxamide] | 100 to 1000
13 | CCOc1ncccc1-c1ccc(C2(C(=O)N[C@H]3CCN(C)C3)CCN(c3ccc(C#N)cc3C#N)CC2)cn1 [Compound 1-40, 1-(2,4-dicyanophenyl)-4-{2′-ethoxy-[2,3′-bipyridin]-5-yl}-N-[(3S)-1-methylpyrrolidin-3-yl]piperidine-4-carboxamide] | < 10
14 | CN1CC[C@H](NC(=O)C2(c3cnc(-c4cccn4C)c(F)c3)CCN(c3ccc(Cl)cc3C#N)CC2)C1 [Compound 1-163, 1-(4-chloro-2-cyanophenyl)-4-[5-fluoro-6-(1-methyl-1H-pyrrol-2-yl)pyridin-3-yl]-N-[(3S)-1-methylpyrrolidin-3-yl]piperidine-4-carboxamide] | < 10
15 | COc1sccc1-c1ccc(C2(C(=O)N[C@H]3CCN(C)C3)CCN(c3ccc(C(F)(F)F)cc3Cl)CC2)cn1 [Compound 1-167, 1-[2-chloro-4-(trifluoromethyl)phenyl]-4-[6-(2-methoxythiophen-3-yl)pyridin-3-yl]-N-[(3S)-1-methylpyrrolidin-3-yl]piperidine-4-carboxamide] | < 10
16 | COc1ncc(F)cc1-c1ncc(C2(C(=O)N[C@H]3CCN(C)C3)CCN(c3ccc(C(F)(F)F)cc3C#N)CC2)cc1F [Compound 1-209, 1-[2-cyano-4-(trifluoromethyl)phenyl]-4-{3,5′-difluoro-2′-methoxy-[2,3′-bipyridin]-5-yl}-N-[(3S)-1-methylpyrrolidin-3-yl]piperidine-4-carboxamide] | < 10
17 | COc1ccccc1-c1ccc(C2(C(=O)N[C@@H]3CN4CCC3CC4)CCN(c3ccc(C(F)(F)F)cc3C#N)CC2)cn1 [Compound 1-218, N-[(3S)-1-azabicyclo[2.2.2]octan-3-yl]-1-[2-cyano-4-(trifluoromethyl)phenyl]-4-[6-(2-methoxyphenyl)pyridin-3-yl]piperidine-4-carboxamide] | < 10
18 | CCOc1ncccc1-c1ccc(C2(NC(=O)O[C@H]3CCN(C)C3)CCN(c3ccc(C(F)(F)F)cc3C#N)CC2)cn1 [Compound 2-18, (3S)-1-methylpyrrolidin-3-yl N-{1-[2-cyano-4-(trifluoromethyl)phenyl]-4-{2′-ethoxy-[2,3′-bipyridin]-5-yl}piperidin-4-yl}carbamate] | < 10
19 | COc1ccccc1-c1ccc(C2(NC(=O)O[C@@H]3CCN(C)C3)CCN(c3ccc(C(F)(F)F)cc3C#N)CC2)cn1 [Compound 2-54, (3R)-1-methylpyrrolidin-3-yl N-{1-[2-cyano-4-(trifluoromethyl)phenyl]-4-[6-(2-methoxyphenyl)pyridin-3-yl]piperidin-4-yl}carbamate] | < 10
20 | CCOc1ncccc1-c1ccc(C2(C(=O)N[C@H]3CCN(C)C3)CCN(c3ccc(C(F)(F)F)cc3F)CC2)cn1 [Compound 1-186, 4-{2′-ethoxy-[2,3′-bipyridin]-5-yl}-1-[2-fluoro-4-(trifluoromethyl)phenyl]-N-[(3S)-1-methylpyrrolidin-3-yl]piperidine-4-carboxamide] | < 10
21 | CCOc1ncccc1-c1ncc(C2(C(=O)N[C@H]3CCN(C)C3)CCN(c3ccc(C(F)(F)F)cc3F)CC2)cc1F [Compound 1-201, (S)-4-(2′-ethoxy-3-fluoro-[2,3′-bipyridin]-5-yl)-1-(2-fluoro-4-(trifluoromethyl)phenyl)-N-(1-methylpyrrolidin-3-yl)piperidine-4-carboxamide] | < 10
22 | CCOc1ncccc1-c1ccc(C2(NC(=O)CCN)CCN(c3ccc(C(F)(F)F)cc3C#N)CC2)cn1 [Compound 2-4, 3-amino-N-{1-[2-cyano-4-(trifluoromethyl)phenyl]-4-{2′-ethoxy-[2,3′-bipyridin]-5-yl}piperidin-4-yl}propanamide] | < 10
23 | CCOc1ncccc1-c1ccc(C2(NC(=O)[C@H]3CCCN3C)CCN(c3ccc(C(F)(F)F)cc3C#N)CC2)cc1 [Compound 2-17, (2R)—N-{1-[2-cyano-4-(trifluoromethyl)phenyl]-4-[4-(2-ethoxypyridin-3-yl)phenyl]piperidin-4-yl}-1-methylpyrrolidine-2-carboxamide] | 10 to 100
24 | CCOc1ncccc1-c1ccc(C2(C(=O)N[C@H]3CCN(C)C3)CCN(c3ccc(C(F)(F)F)cc3C#N)CC2)cn1 [Compound 1-11, 1-[2-cyano-4-(trifluoromethyl)phenyl]-4-{2′-ethoxy-[2,3′-bipyridin]-5-yl}-N-[(3S)-1-methylpyrrolidin-3-yl]piperidine-4-carboxamide] | < 10
25 | CCOc1ccccc1-c1ncc(C2(C(=O)N[C@H]3CCN(C)C3)CCN(c3ccc(C(F)(F)F)cc3F)CC2)cc1F [Compound 1-200, 4-[6-(2-ethoxyphenyl)-5-fluoropyridin-3-yl]-1-[2-fluoro-4-(trifluoromethyl)phenyl]-N-[(3S)-1-methylpyrrolidin-3-yl]piperidine-4-carboxamide] | < 10
26 | CCOc1ccccc1-c1ccc(C2(C(=O)N[C@H]3CCN(C)C3)CCN(c3ccc(C(F)(F)F)cc3Cl)CC2)nn1 [Compound 1-175, 1-[2-chloro-4-(trifluoromethyl)phenyl]-4-[6-(2-ethoxyphenyl)pyridazin-3-yl]-N-[(3S)-1-methylpyrrolidin-3-yl]piperidine-4-carboxamide] | < 10
27 | CN1CC[C@@H](NC(=O)C2(c3ccc(-c4cccc5ccn(C)c45)nc3)CCN(c3ccc(C(F)(F)F)cc3C#N)CC2)C1 [Compound 1-190, 1-[2-cyano-4-(trifluoromethyl)phenyl]-4-[6-(1-methyl-1H-indol-7-yl)pyridin-3-yl]-N-[(3R)-1-methylpyrrolidin-3-yl]piperidine-4-carboxamide] | 10 to 100
